Test system: adjuvant-associated biological themes in LV, SP, LN
Outline: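 Per-mouse whole-organ transcriptomes; genes with eij/ei(c)>2.0 tested for theme enrichment via TargetMine (GO, KEGG, Reactome, others), Fisher's exact test, Holm-Bonferroni correction. Themes shared by all three mice kept at p<0.05, using the smallest p. Score per adjuvant-associated term = Σ−log(p) of matching themes.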

## Monophosphoryl lipid A [MPLA]
LV, ID
  IFN alpha, GO annotation line 1 of 5: 0
  IFN alpha, GO annotation line 2 of 5: 0
  IFN alpha: cellular response to interferon-alpha: 0
  IFN alpha: positive regulation of interferon-alpha production: 0
  IFN alpha: regulation of interferon-alpha production: 0
  IFN beta: cellular response to interferon-beta: 0
  IFN beta: interferon-beta production: 0
  IFN beta: positive regulation of interferon-beta production: 0
  IFN beta: regulation of interferon-beta production: 0
  IFN beta: response to interferon-beta: 0
  IFN gamma: cellular response to interferon-gamma: 0
  IFN gamma: interferon-gamma production: 0
  IFN gamma: regulation of interferon-gamma production: 0
  IFN gamma: response to interferon-gamma: 0
  NF-kappa B signaling pathway, GO annotation line 1 of 4: 0
  NF-kappa B signaling pathway, GO annotation line 2 of 4: 0
  NF-kappa B signaling pathway, GO annotation line 3 of 4: 0
  NF-kappa B signaling pathway, GO annotation line 4 of 4: 0
  TNF signaling pathway: 3.93
  adaptive immune response, GO annotation line 1 of 5: 0
  adaptive immune response, GO annotation line 2 of 5: 0
  adaptive immune response, GO annotation line 3 of 5: 0
  adaptive immune response, GO annotation line 4 of 5: 0
  adaptive immune response, GO annotation line 5 of 5: 0
  apoptosis, GO annotation line 1 of 8: 0
  apoptosis, GO annotation line 2 of 8: 0
  apoptosis, GO annotation line 3 of 8: 0
  apoptosis, GO annotation line 4 of 8: 0
  apoptosis, GO annotation line 5 of 8: 0
  apoptosis, GO annotation line 6 of 8: 0
  apoptosis, GO annotation line 7 of 8: 0
  apoptosis, GO annotation line 8 of 8: 0
  cell death, GO annotation line 1 of 9: 0
  cell death, GO annotation line 2 of 9: 0
  cell death, GO annotation line 3 of 9: 0
  cell death, GO annotation line 4 of 9: 0
  cell death, GO annotation line 5 of 9: 0
  cell death, GO annotation line 6 of 9: 0
  cell death, GO annotation line 7 of 9: 0
  cell death, GO annotation line 8 of 9: 0
  cell death, GO annotation line 9 of 9: 0
  chemokine, GO annotation line 1 of 4: 0
  chemokine, GO annotation line 2 of 4: 0
  chemokine, GO annotation line 3 of 4: 0
  chemokine, GO annotation line 4 of 4: 0
  chemotaxis, GO annotation line 1 of 11: 3.38
  chemotaxis, GO annotation line 2 of 11: 0
  chemotaxis, GO annotation line 3 of 11: 0
  chemotaxis, GO annotation line 4 of 11: 0
  chemotaxis, GO annotation line 5 of 11: 0
  chemotaxis, GO annotation line 6 of 11: 0
  chemotaxis, GO annotation line 7 of 11: 0
  chemotaxis, GO annotation line 8 of 11: 0
  chemotaxis, GO annotation line 9 of 11: 0
  chemotaxis, GO annotation line 10 of 11: 0
  chemotaxis, GO annotation line 11 of 11: 0
  cytokine, GO annotation line 1 of 17: 0
  cytokine, GO annotation line 2 of 17: 0
  cytokine, GO annotation line 3 of 17: 0
  cytokine, GO annotation line 4 of 17: 0
  cytokine, GO annotation line 5 of 17: 0
  cytokine, GO annotation line 6 of 17: 0
  cytokine, GO annotation line 7 of 17: 0
  cytokine, GO annotation line 8 of 17: 0
  cytokine, GO annotation line 9 of 17: 0
  cytokine, GO annotation line 10 of 17: 0
  cytokine, GO annotation line 11 of 17: 0
  cytokine, GO annotation line 12 of 17: 0
  cytokine, GO annotation line 13 of 17: 0
  cytokine, GO annotation line 14 of 17: 0
  cytokine, GO annotation line 15 of 17: 0
  cytokine, GO annotation line 16 of 17: 0
  cytokine, GO annotation line 17 of 17: 0
  defense response, GO annotation line 1 of 11: 0
  defense response, GO annotation line 2 of 11: 0
  defense response, GO annotation line 3 of 11: 0
  defense response, GO annotation line 4 of 11: 0
  defense response, GO annotation line 5 of 11: 0
  defense response, GO annotation line 6 of 11: 0
  defense response, GO annotation line 7 of 11: 0
  defense response, GO annotation line 8 of 11: 0
  defense response, GO annotation line 9 of 11: 0
  defense response, GO annotation line 10 of 11: 0
  defense response, GO annotation line 11 of 11: 0
  immune response, GO annotation line 1 of 8: 0
  immune response, GO annotation line 2 of 8: 0
  immune response, GO annotation line 3 of 8: 0
  immune response, GO annotation line 4 of 8: 0
  immune response, GO annotation line 5 of 8: 0
  immune response, GO annotation line 6 of 8: 0
  immune response, GO annotation line 7 of 8: 0
  immune response, GO annotation line 8 of 8: 0
  inflammatory response, GO annotation line 1 of 5: 0
  inflammatory response, GO annotation line 2 of 5: 0
  inflammatory response, GO annotation line 3 of 5: 0
  inflammatory response, GO annotation line 4 of 5: 0
  inflammatory response, GO annotation line 5 of 5: 0
  innate immune response, GO annotation line 1 of 6: 0
  innate immune response, GO annotation line 2 of 6: 0
  innate immune response, GO annotation line 3 of 6: 0
  innate immune response, GO annotation line 4 of 6: 0
  innate immune response, GO annotation line 5 of 6: 0
  innate immune response, GO annotation line 6 of 6: 0
  interleukin-6: interleukin-6 production: 0
  interleukin-6: positive regulation of interleukin-6 production: 0
  interleukin-6: regulation of interleukin-6 production: 0
  interleukin-12: interleukin-12 production: 0
  interleukin-12: positive regulation of interleukin-12 production: 0
  interleukin-12: regulation of interleukin-12 production: 0
  migration, GO annotation line 1 of 10: 0
  migration, GO annotation line 2 of 10: 0
  migration, GO annotation line 3 of 10: 0
  migration, GO annotation line 4 of 10: 0
  migration, GO annotation line 5 of 10: 0
  migration, GO annotation line 6 of 10: 0
  migration, GO annotation line 7 of 10: 0
  migration, GO annotation line 8 of 10: 0
  migration, GO annotation line 9 of 10: 0
  migration, GO annotation line 10 of 10: 0
  stress, GO annotation line 1 of 3: 0
  stress, GO annotation line 2 of 3: 0
  stress, GO annotation line 3 of 3: 0
  wounding, GO annotation line 1 of 3: 0
  wounding, GO annotation line 2 of 3: 0
  wounding, GO annotation line 3 of 3: 0
i.d., fold change >2
  systemic organ (LV and SP) responses after i.d. local administration: limited responses in LV and SP

— patent US20230021483A1, “[…] […] METHOD AND CLASSIFICATION OF PHARMACEUTICAL COMPONENTS BY USING TRANSCRIPTOMES” (National Institutes of Biomedical Innovation, Health and …, priority 2016, published 2023)
